# Article PMC11100219, “Dual-function antimicrobial-antibiofilm peptide hybrid to tackle biofilm-forming Staphylococcus epidermidis” (Annals of Clinical Microbiology and Antimicrobials, 2024)
# Residues, ends and D or L forms follow the SMILES beside them.
# Legend:
# [1] = test system: S. epidermidis (ATCC 35984) biofilm; assay: Biofilm-formation inhibitory activity, crystal violet staining; type: cell-based, Staphylococcus epidermidis; details: CV staining, TSB, 10^6 CFU/mL, 24 h, 37°C, 0.98-250 µg/mL; for MBIC50: minimum concentration inhibiting biofilm formation more than 50%; for MBIC90: minimum concentration inhibiting biofilm formation more than 90%
# Description: The biofilm inhibitory activity of peptide derivatives was assessed by modified crystal violet (CV) staining. Briefly, the pellet of S. epidermidis (ATCC 35984) was collected through centrifugation of bacterial suspensions grown overnight at 2,500 × g for 5 min. Subsequently, the pellet was resuspended and diluted with TSB to a final concentration of 10^6 CFU/mL. Then, 50 µL of these diluted suspensions was transferred to 96-well microplates containing same volume of peptide derivatives in 10 mM phosphate buffer saline (PBS; Caisson Labs, USA), with concentrations ranging from 0.98 to 250 µg/mL. Vancomycin was used as positive control while TSB medium without bacteria was used as negative control. After 24 h of incubation and reaching static growth at 37°C, culture media as well as planktonic cells were removed, then the biofilm in each well was washed thrice with 0.85% NaCl. For CV staining, biofilms were fixed with 95% ethanol and stained with a 0.1% (v/v) CV solution for 15 min. After removal of excess dye, each well was washed thrice with 0.85% NaCl and resuspended in 95% ethanol to dissolve bound dye. Absorbance was determined at 570 nm using a Multiskan SkyHigh microplate reader (Thermo Scientific™, Singapore). All experiments were done in six technical replicates and repeated independently three times. Minimum biofilm inhibitory concentrations at 50% and 90% (MBIC50 and MBIC90) refers to concentrations of the peptide at which the inhibition of biofilm was at least 50% and 90%, respectively.
# [2] = test system: Acinetobacter baumanii MT strain; assay: Broth microdilution MIC / MBC; type: cell-based; details: 24 h, 37°C; for MIC: broth microdilution, MHB, 0.98-250 µg/mL, visible inspection; for MBC: plating of non-turbid wells on TSA
# Description: (§1) The minimal inhibitory concentrations (MICs) of peptide derivatives versus planktonic bacteria were assessed using a modification of the broth microdilution assay previously described in the National Committee for Clinical Laboratory Standards (NCCLS). In brief, bacteria at mid-logarithmic growth were collected by centrifugation at 2,500 × g for 5 min. Subsequently, the pellet was resuspended and adjusted in Mueller-Hinton Broth (MHB; BD Bacto™, USA) to an OD620 of 0.05. Fifty µL of bacterial suspensions was transferred to 96-well microplates. Later, 50 µL of peptide derivatives at 0.98–250 µg/mL in 10 mM PBS, was added to wells and incubated for 24 h at 37°C with continuous shaking at 220 rpm. […] The experiments were done in three technical replicates and repeated independently.
# (§2) To determine minimal bactericidal concentrations (MBCs) of the peptides, 50 µL of supernatant from non-turbid wells was plated on TSA, and the number of colony-forming units (CFUs) was observed after 24 h of incubation at 37°C. MBC was defined as the minimum concentration of peptide at which no bacterial colony was observed on the plate.
# [3] = test system: Bacillus cereus ATCC 11778; assay: Broth microdilution MIC / MBC; type: cell-based; details: 24 h, 37°C; for MIC: broth microdilution, MHB, 0.98-250 µg/mL, visible inspection; for MBC: plating of non-turbid wells on TSA
# Description: as §1, §2
# [4] = test system: Escherichia coli ATCC 25922; assay: Broth microdilution MIC / MBC; type: cell-based; details: 24 h, 37°C; for MIC: broth microdilution, MHB, 0.98-250 µg/mL, visible inspection; for MBC: plating of non-turbid wells on TSA
# Description: as §1, §2
# [5] = test system: Listeria monocytogenes 10403s; assay: Broth microdilution MIC / MBC; type: cell-based; details: 24 h, 37°C; for MIC: broth microdilution, MHB, 0.98-250 µg/mL, visible inspection; for MBC: plating of non-turbid wells on TSA
# Description: as §1, §2
# [6] = test system: Pseudomonas aeruginosa ATCC 27853; assay: Broth microdilution MIC / MBC; type: cell-based; details: 24 h, 37°C; for MIC: broth microdilution, MHB, 0.98-250 µg/mL, visible inspection; for MBC: plating of non-turbid wells on TSA
# Description: as §1, §2
# [7] = test system: Salmonella Typhimurium ATCC 13311; assay: Broth microdilution MIC / MBC; type: cell-based; details: 24 h, 37°C; for MIC: broth microdilution, MHB, 0.98-250 µg/mL, visible inspection; for MBC: plating of non-turbid wells on TSA
# Description: as §1, §2
# [8] = test system: Staphylococcus aureus ATCC 25923; assay: Broth microdilution MIC / MBC; type: cell-based; details: 24 h, 37°C; for MIC: broth microdilution, MHB, 0.98-250 µg/mL, visible inspection; for MBC: plating of non-turbid wells on TSA
# Description: as §1, §2
# [9] = test system: Staphylococcus epidermidis ATCC 35984; assay: Broth microdilution MIC / MBC; type: cell-based; details: 24 h, 37°C; for MIC: broth microdilution, MHB, 0.98-250 µg/mL, visible inspection; for MBC: plating of non-turbid wells on TSA
# Description: as §1, §2
# [10] = test system: human red blood cells (hRBCs); assay: Hemolysis activity (hemoglobin release); type: cell-based; details: 1 h, 37°C; for MHC, minimum hemolytic concentration: peptide concentration causing 10% hemolysis of hRBCs, 2% hRBCs in 10 mM PBS, OD405
# Description: The effect of peptides on human red blood cells (hRBCs) was assessed by observing the release of hemoglobin upon treated with peptide. Briefly, the hRBCs were obtained from healthy volunteers and subsequently diluted in 10 mM PBS to a concentration of 2% hRBCs. An equal volume of 2% hRBCs and peptide at concentration of 0.98–250 µg/mL in 10 mM PBS mixtures were incubated for 1 h at 37°C. Following incubation, the suspension was centrifuged, then supernatants were collected and transferred to 96-well microplates for measurement of absorbance at OD of 405 nm (OD405). This study was performed in accordance with the Thammasat University Ethics Committee (COA No. 066/2562). Written informed consent was obtained from all volunteers.
# [11] = test system: all gram-positive bacterial strains; assay: Mean MIC and therapeutic index, gram-positive strains; type: cell-based; details: four gram-positive strains
# Description: as §1
# (§3) The therapeutic index (TI) is widely used for evaluating a peptide’s efficacy and safety. It is the ratio between the minimum hemolytic concentration (MHC, the concentration causing 10% hemolysis) and the geometric mean (GM) value of the MIC [15]. […] While, both lysine-substituted peptides (BiF2_7K and BiF2_5K7K) had higher TIs against all tested biofilm-forming bacteria than did the two parent peptides, and the TI of BiF2_5K7K was higher than that of BiF2_7K.
# [12] = test system: all gram-negative bacterial strains; assay: Mean MIC and therapeutic index, gram-negative strains; type: cell-based; details: four gram-negative strains
# Description: as §1, §3
# [13] = test system: human lung fibroblast MRC-5 cell lines (ATCC CCL-171); assay: MTT cytotoxicity assay; type: cell-based; details: MRC-5, 24 h
# Description: The toxicity of peptide BiF2_5K7K against human lung fibroblast MRC-5 cell lines (ATCC CCL-171) was investigated by MTT colorimetric assay. Briefly, MRC-5 cells were cultured in Minimum Essential Medium [MEM; supplemented with 10% heat-inactivated FBS and 1% Penicillin-Streptomycin] in 5% CO2 at 37°C. Following an overnight incubation, MRC-5 cells were diluted to 10,000 cells/well and placed in 96-well microplates. Subsequently, they were exposed to BiF2_5K7K at 0.98 to 250 µg/mL. After incubation for 24 h, MTT solution (0.4 mg/mL) was added to each well and incubated for an additional 3 h under 5% CO2 at 37°C. The supernatant was then removed and 100 µL DMSO added, and absorbance was measured at 570 nm using a microplate reader.
structure (smiles),measurement,setting,value
CC[C@H](C)[C@H](NC(=O)[C@H](CC(C)C)NC(=O)[C@H](CCCCN)NC(=O)[C@@H](NC(=O)[C@H](CC(C)C)NC(=O)[C@@H](N)Cc1ccccc1)C(C)C)C(=O)N[C@@H](CC(C)C)C(=O)N[C@@H](CCCCN)C(=O)N[C@H](C(=O)N[C@@H](CC(C)C)C(=O)N[C@@H](CCCNC(=N)N)C(=O)N[C@@H](CCCNC(=N)N)C(N)=O)[C@@H](C)CC [BiF2] (H-FLVKLILKILRR-NH2; N-terminus assumed),MBIC50,[1],125 µg/mL
same,MBIC90,[1],250 µg/mL
same,MIC,[2],62.5 µg/mL
same,MBC,[2],62.5 µg/mL
same,MIC,[3],15.6 µg/mL
same,MBC,[3],15.6 µg/mL
same,MIC,[4],31.2 µg/mL
same,MBC,[4],31.2 µg/mL
same,MIC,[5],15.63 µg/mL
same,MBC,[5],31.25 µg/mL
same,MIC,[6],15.63 µg/mL
same,MBC,[6],31.25 µg/mL
same,MIC,[7],62.5 µg/mL
same,MBC,[7],62.5 µg/mL
same,MIC,[8],62.5 µg/mL
same,MBC,[8],62.5 µg/mL
same,MIC,[9],31.25 µg/mL
same,MBC,[9],62.5 µg/mL
same,"MHC, minimum hemolytic concentration",[10],1.95 µg/mL
same,"GM +, geometric mean of MIC values from all gram-positive bacterial strains",[11],31.25 µg/mL
same,"GM-, geometric mean of MIC values from all gram-negative bacterial strains",[12],42.97 µg/mL
CC[C@H](C)[C@H](NC(=O)[C@H](CC(C)C)NC(=O)[C@H](CCCCN)NC(=O)[C@@H](NC(=O)[C@H](CC(C)C)NC(=O)[C@@H](N)Cc1ccccc1)C(C)C)C(=O)N[C@@H](CCCCN)C(=O)N[C@@H](CCCCN)C(=O)N[C@H](C(=O)N[C@@H](CC(C)C)C(=O)N[C@@H](CCCNC(=N)N)C(=O)N[C@@H](CCCNC(=N)N)C(N)=O)[C@@H](C)CC [BiF2_7K] (H-FLVKLIKKILRR-NH2; N-terminus assumed),MBIC50,[1],3.91 µg/mL
same,MBIC90,[1],7.81 µg/mL
same,MIC,[2],7.81 µg/mL
same,MBC,[2],7.81 µg/mL
same,MIC,[3],7.81 µg/mL
same,MBC,[3],7.81 µg/mL
same,MIC,[4],31.2 µg/mL
same,MBC,[4],31.2 µg/mL
same,MIC,[5],7.81 µg/mL
same,MBC,[5],7.81 µg/mL
same,MIC,[6],15.6 µg/mL
same,MBC,[6],15.6 µg/mL
same,MIC,[7],7.81 µg/mL
same,MBC,[7],15.63 µg/mL
same,MIC,[8],15.6 µg/mL
same,MBC,[8],15.6 µg/mL
same,MIC,[9],7.81 µg/mL
same,MBC,[9],7.81 µg/mL
same,hemolytic activity,[10]; at 250 µg/mL (maximum concentration tested),60%
same,"MHC, minimum hemolytic concentration",[10],15.63 µg/mL
same,"GM +, geometric mean of MIC values from all gram-positive bacterial strains",[11],9.77 µg/mL
same,"GM-, geometric mean of MIC values from all gram-negative bacterial strains",[12],15.63 µg/mL
"CC[C@H](C)[C@H](NC(=O)CN)C(=O)NCC(=O)N[C@@H](C)C(=O)N[C@H](C(=O)N[C@@H](CC(C)C)C(=O)N[C@@H](CCCCN)C(=O)N[C@H](C(=O)N[C@@H](CC(C)C)C(=O)N[C@H](C(=O)N[C@H](C(=O)NCC(=O)N[C@@H](CC(C)C)C(=O)N1CCC[C@H]1C(=O)N[C@@H](C)C(=O)N[C@@H](CC(C)C)C(=O)N[C@H](C(=O)N[C@@H](CO)C(=O)N[C@@H](Cc1c[nH]c2ccccc12)C(=O)N[C@H](C(=O)N[C@@H](CCCCN)C(=O)N[C@@H](CCCNC(=N)N)C(=O)N[C@@H](CCCCN)C(=O)N[C@@H](CCCNC(=N)N)C(=O)N[C@@H](CCC(N)=O)C(=O)N[C@@H](CCC(N)=O)C(N)=O)[C@@H](C)CC)[C@@H](C)CC)[C@@H](C)O)[C@@H](C)O)C(C)C)C(C)C [Melittin, melittin, reference compound]",MIC,[2],7.81 µg/mL
same,MBC,[2],7.81 µg/mL
same,MIC,[3],3.91 µg/mL
same,MBC,[3],3.91 µg/mL
same,MBC,[4],31.2 µg/mL
same,MIC,[5],3.91 µg/mL
same,MBC,[5],3.91 µg/mL
same,MIC,[6],15.6 µg/mL
same,MBC,[6],15.6 µg/mL
same,MIC,[7],3.91 µg/mL
same,MBC,[7],3.91 µg/mL
same,MIC,[9],15.6 µg/mL
same,MBC,[9],15.6 µg/mL
same,lysis of hRBCs,[10]; at 3.91 µg/mL,completely lysed
same,"GM +, geometric mean of MIC values from all gram-positive bacterial strains",[11],6.84 µg/mL
same,"GM-, geometric mean of MIC values from all gram-negative bacterial strains",[12],14.65 µg/mL
same,cytotoxic effect,[13],strong dose-dependent cytotoxic effect
"CN[C@H](CC(C)C)C(=O)N[C@H]1C(=O)N[C@@H](CC(N)=O)C(=O)N[C@H]2C(=O)N[C@H]3C(=O)N[C@H](C(=O)N[C@H](C(=O)O)c4cc(O)cc(O)c4-c4cc3ccc4O)[C@H](O)c3ccc(c(Cl)c3)Oc3cc2cc(c3O[C@@H]2O[C@H](CO)[C@@H](O)[C@H](O)[C@H]2O[C@H]2C[C@](C)(N)[C@H](O)[C@H](C)O2)Oc2ccc(cc2Cl)[C@H]1O [vancomycin, reference compound]",MBIC50,[1],3.91 µg/mL
same,MBIC90,[1],3.91 µg/mL
